# Several values for one entry are separate records, joined by “and”; a condition that tells them apart may be missing. Identical values can stand only once. Like-named read-outs stand apart in the source and are kept apart here.
# Tests used:
# PfcProRS = molecular target: T1, PfcProRS (Plasmodium falciparum, UniProt Q8I5R7); format: binding; conditions: single replicates
# T1 construct: made in house; host or cells: E. coli SoluBL-21
# P. falciparum Dd2-2D4 = experiment: P. falciparum asexual blood stage (ABS) growth assay, SYBR Green, 72 h, wild-type parasites; format: cell-based, Plasmodium falciparum
# HsProRS = HsProRS (Homo sapiens, UniProt P07814); experiment: TR-FRET ligand displacement assay with tracer MAT379 (CoraFluor-1-Halo and anti-His6 antibody formats); format: binding; design: made in house; host or cells: E. coli SoluBL-21; conditions: for TR-FRET dose-response, normalized signal (SI Fig 11): individual replicates
# Sequence of HsProRS (P07814 996-1512): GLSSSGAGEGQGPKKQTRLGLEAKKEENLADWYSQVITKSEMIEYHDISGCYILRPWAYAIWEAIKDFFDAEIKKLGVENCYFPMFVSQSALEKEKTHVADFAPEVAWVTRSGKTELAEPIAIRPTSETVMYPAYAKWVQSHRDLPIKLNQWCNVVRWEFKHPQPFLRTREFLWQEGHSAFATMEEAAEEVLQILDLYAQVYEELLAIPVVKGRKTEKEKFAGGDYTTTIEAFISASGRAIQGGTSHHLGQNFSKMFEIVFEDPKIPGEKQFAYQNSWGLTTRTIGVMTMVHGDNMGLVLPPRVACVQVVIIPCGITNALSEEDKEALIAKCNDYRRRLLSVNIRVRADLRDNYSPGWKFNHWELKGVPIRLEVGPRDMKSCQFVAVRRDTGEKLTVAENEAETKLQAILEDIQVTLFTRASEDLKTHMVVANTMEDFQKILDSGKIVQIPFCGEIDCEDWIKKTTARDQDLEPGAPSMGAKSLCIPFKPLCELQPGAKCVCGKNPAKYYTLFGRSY
# T1 sequence (Q8I5R7 249-746): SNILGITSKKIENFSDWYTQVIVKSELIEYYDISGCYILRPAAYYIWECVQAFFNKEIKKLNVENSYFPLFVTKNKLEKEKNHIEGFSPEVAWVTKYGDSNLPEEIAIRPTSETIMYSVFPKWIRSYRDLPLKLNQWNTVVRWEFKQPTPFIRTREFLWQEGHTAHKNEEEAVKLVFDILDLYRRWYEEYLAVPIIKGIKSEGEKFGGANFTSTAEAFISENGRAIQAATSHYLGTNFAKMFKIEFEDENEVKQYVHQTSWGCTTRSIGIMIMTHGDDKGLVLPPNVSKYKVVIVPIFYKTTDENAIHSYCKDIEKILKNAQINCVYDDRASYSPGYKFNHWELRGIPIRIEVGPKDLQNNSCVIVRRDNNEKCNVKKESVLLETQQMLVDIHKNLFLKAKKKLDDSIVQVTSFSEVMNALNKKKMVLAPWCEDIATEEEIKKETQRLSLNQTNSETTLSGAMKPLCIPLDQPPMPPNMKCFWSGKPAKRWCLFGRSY
smiles,measurement,setting,value
O=C(O)CCCC(=O)Nc1nccnc1C(=O)NC1Cc2ccccc2C1 [compound 22],"dose-response signal (normalized), SI Fig 8",PfcProRS; Log[inhibitor] (M) -5.000,9.06E-01 and 9.64E-01 and 8.26E-01
same,"dose-response signal (normalized), SI Fig 8",PfcProRS; Log[inhibitor] (M) -5.301,1.01E+00 (2×) and 9.72E-01
same,"dose-response signal (normalized), SI Fig 8",PfcProRS; Log[inhibitor] (M) -5.601,9.26E-01 and 1.02E+00 and 9.22E-01
same,"dose-response signal (normalized), SI Fig 8",PfcProRS; Log[inhibitor] (M) -5.904,9.72E-01 and 1.05E+00 and 1.09E+00
same,"dose-response signal (normalized), SI Fig 8",PfcProRS; Log[inhibitor] (M) -6.208,1.07E+00 (2×) and 9.87E-01
same,"dose-response signal (normalized), SI Fig 8",PfcProRS; Log[inhibitor] (M) -6.509,1.07E+00 and 1.14E+00 and 1.02E+00
same,"dose-response signal (normalized), SI Fig 8",PfcProRS; Log[inhibitor] (M) -6.796,9.89E-01 and 1.07E+00 and 9.33E-01
same,"dose-response signal (normalized), SI Fig 8",PfcProRS; Log[inhibitor] (M) -7.108,1.06E+00 and 1.00E+00 and 1.02E+00
same,"dose-response signal (normalized), SI Fig 8",PfcProRS; Log[inhibitor] (M) -7.409,9.62E-01 and 1.08E+00 and 9.97E-01
same,"dose-response signal (normalized), SI Fig 8",PfcProRS; Log[inhibitor] (M) -7.710,1.02E+00 and 9.90E-01 and 1.13E+00
same,"dose-response signal (normalized), SI Fig 8",PfcProRS; Log[inhibitor] (M) -8.000,1.05E+00 (2×) and 1.10E+00
same,"dose-response signal (normalized), SI Fig 8",PfcProRS; Log[inhibitor] (M) -8.301,1.05E+00 and 1.11E+00 and 1.20E+00
same,"dose-response signal (normalized), SI Fig 8",PfcProRS; Log[inhibitor] (M) -8.602,9.67E-01 and 1.09E+00 and 1.08E+00
same,"dose-response signal (normalized), SI Fig 8",PfcProRS; Log[inhibitor] (M) -9.000,9.27E-01 and 1.05E+00 and 1.07E+00
same,"dose-response signal (normalized), SI Fig 8",PfcProRS; Log[inhibitor] (M) -9.301,1.08E+00 and 1.15E+00 and 9.88E-01
same,dose-response value per replicate (SI Fig 2g),P. falciparum Dd2-2D4; Log[inhibitor] (M) -7.408,111
same,EC50,"P. falciparum Dd2-2D4; Plasmodium falciparum, DD2, SI Fig 16b, values on -log scale, read-out: ABS - Dd2-2D4 (converted)",12.3 µM
same,IC50,HsProRS,> 10 µM
same,"HsProRS % signal at 10 μM, + 100 μM proline","HsProRS; + 100 μM proline, 10 μM",79.2%
same,"normalized TR-FRET ligand displacement signal, dose-response replicates (SI Fig 6)",HsProRS; Log[inhibitor] (M) -5.000,6.88E-01 and 7.76E-01 and 7.44E-01
same,"TR-FRET dose-response, normalized signal (SI Fig 11)",HsProRS; Log[inhibitor] (M) -5.000,7.43E-01 and 6.59E-01 and 7.38E-01
same,"normalized TR-FRET ligand displacement signal, dose-response replicates (SI Fig 6)",HsProRS; Log[inhibitor] (M) -5.301,8.82E-01 (2×) and 7.80E-01
same,"TR-FRET dose-response, normalized signal (SI Fig 11)",HsProRS; Log[inhibitor] (M) -5.301,8.33E-01 and 8.41E-01 and 8.52E-01
same,"normalized TR-FRET ligand displacement signal, dose-response replicates (SI Fig 6)",HsProRS; Log[inhibitor] (M) -5.601,8.80E-01 and 9.45E-01 and 8.65E-01
same,"TR-FRET dose-response, normalized signal (SI Fig 11)",HsProRS; Log[inhibitor] (M) -5.601,9.39E-01 and 8.79E-01 and 9.13E-01
same,"normalized TR-FRET ligand displacement signal, dose-response replicates (SI Fig 6)",HsProRS; Log[inhibitor] (M) -5.904,1.02E+00 and 1.06E+00 and 9.13E-01
same,"TR-FRET dose-response, normalized signal (SI Fig 11)",HsProRS; Log[inhibitor] (M) -5.904,9.47E-01 and 9.57E-01 and 9.01E-01
same,"normalized TR-FRET ligand displacement signal, dose-response replicates (SI Fig 6)",HsProRS; Log[inhibitor] (M) -6.208,1.04E+00 and 1.02E+00 and 9.07E-01
same,"TR-FRET dose-response, normalized signal (SI Fig 11)",HsProRS; Log[inhibitor] (M) -6.208,1.02E+00 and 9.48E-01 and 9.47E-01
same,"normalized TR-FRET ligand displacement signal, dose-response replicates (SI Fig 6)",HsProRS; Log[inhibitor] (M) -6.509,8.91E-01 and 9.55E-01 and 1.01E+00
same,"TR-FRET dose-response, normalized signal (SI Fig 11)",HsProRS; Log[inhibitor] (M) -6.509,9.53E-01 and 9.49E-01 and 9.29E-01
same,"normalized TR-FRET ligand displacement signal, dose-response replicates (SI Fig 6)",HsProRS; Log[inhibitor] (M) -6.796,1.03E+00 and 1.02E+00 and 9.73E-01
same,"TR-FRET dose-response, normalized signal (SI Fig 11)",HsProRS; Log[inhibitor] (M) -6.796,9.39E-01 and 9.96E-01 and 9.21E-01
same,"normalized TR-FRET ligand displacement signal, dose-response replicates (SI Fig 6)",HsProRS; Log[inhibitor] (M) -7.108,1.09E+00 and 9.83E-01 and 1.08E+00
same,"TR-FRET dose-response, normalized signal (SI Fig 11)",HsProRS; Log[inhibitor] (M) -7.108,9.39E-01 and 9.94E-01 and 9.05E-01
same,"normalized TR-FRET ligand displacement signal, dose-response replicates (SI Fig 6)",HsProRS; Log[inhibitor] (M) -7.409,9.62E-01 and 1.05E+00 and 9.54E-01
same,"TR-FRET dose-response, normalized signal (SI Fig 11)",HsProRS; Log[inhibitor] (M) -7.409,9.56E-01 and 9.55E-01 and 9.01E-01
same,"normalized TR-FRET ligand displacement signal, dose-response replicates (SI Fig 6)",HsProRS; Log[inhibitor] (M) -7.710,9.45E-01 and 1.01E+00 and 9.79E-01
same,"TR-FRET dose-response, normalized signal (SI Fig 11)",HsProRS; Log[inhibitor] (M) -7.710,9.86E-01 and 9.70E-01 and 9.64E-01
same,"normalized TR-FRET ligand displacement signal, dose-response replicates (SI Fig 6)",HsProRS; Log[inhibitor] (M) -8.000,1.07E+00 and 1.06E+00 and 9.51E-01
same,"TR-FRET dose-response, normalized signal (SI Fig 11)",HsProRS; Log[inhibitor] (M) -8.000,9.84E-01 and 9.81E-01 and 9.67E-01
same,"normalized TR-FRET ligand displacement signal, dose-response replicates (SI Fig 6)",HsProRS; Log[inhibitor] (M) -8.301,9.49E-01 and 8.91E-01 and 8.92E-01
same,"TR-FRET dose-response, normalized signal (SI Fig 11)",HsProRS; Log[inhibitor] (M) -8.301,9.40E-01 and 1.01E+00 and 9.29E-01
same,"normalized TR-FRET ligand displacement signal, dose-response replicates (SI Fig 6)",HsProRS; Log[inhibitor] (M) -8.602,9.06E-01 and 1.02E+00 and 1.07E+00
same,"TR-FRET dose-response, normalized signal (SI Fig 11)",HsProRS; Log[inhibitor] (M) -8.602,9.70E-01 and 9.81E-01 and 9.77E-01
same,"normalized TR-FRET ligand displacement signal, dose-response replicates (SI Fig 6)",HsProRS; Log[inhibitor] (M) -9.000,1.02E+00 and 8.38E-01 and 9.71E-01
same,"TR-FRET dose-response, normalized signal (SI Fig 11)",HsProRS; Log[inhibitor] (M) -9.000,1.01E+00 and 9.79E-01 and 9.47E-01
same,"normalized TR-FRET ligand displacement signal, dose-response replicates (SI Fig 6)",HsProRS; Log[inhibitor] (M) -9.301,9.40E-01 and 9.94E-01 and 9.82E-01
same,"TR-FRET dose-response, normalized signal (SI Fig 11)",HsProRS; Log[inhibitor] (M) -9.301,9.53E-01 and 9.63E-01 and 8.99E-01
same,HsProRS % signal at 10 μM,"HsProRS; no added proline/ATP (-), 10 μM",71.3%
same,IC50,"HsProRS; read-out: HsProRS IC50 + 100 μM proline, + 100 μM proline",> 10 µM
